The test relates to BDF1 mice, P388 leukemia ip, median survival T/C. Nature of the test: NCI In Vivo Anticancer Drug Screen. Data for tumor model P388 Leukemia (intraperitoneal) in B6D2F1 (BDF1) mice. The settings on record: endpoint: median survival time, higher = longer survival. The essentials: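 Survival ratio, drug arm over vehicle arm, in mice with a transplanted tumour.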
The mark [1] stands for this setting: dose: 100.0 mg/kg/injection, schedule: Q04DX003 (ip), vehicle: Klucel (hydroxypropylcellulose) (HPC).
Where [2] appears, read: dose: 100.0 mg/kg/injection, schedule: Q01DX009 (ip), vehicle: Klucel (hydroxypropylcellulose) (HPC).
Setting [3] is: dose: 200.0 mg/kg/injection, schedule: Q01DX009 (ip), vehicle: Klucel (hydroxypropylcellulose) (HPC).
Setting [4] is: dose: 400.0 mg/kg/injection, schedule: Q01DX009 (ip), vehicle: Klucel (hydroxypropylcellulose) (HPC).
Setting [5] is: dose: 100.0 mg/kg/injection, schedule: Q04DX003 (ip), vehicle: saline with Tween-80.

The structures appear in SMILES notation. “And” between values parts separate entries of the source, which are not always exact repeats. Equal entries are not always repeated. Toxic doses and inconclusive results are not listed.

As to `CC(=O)O[C@H]1C(=O)[C@@]2(C)[C@H]([C@H](OC(=O)c3ccccc3)[C@]3(O)C[C@H](OC(=O)[C@H](O)[C@@H](NC(=O)c4ccccc4)c4ccccc4)C(C)=C1C3(C)C)[C@]1(OC(C)=O)CO[C@@H]1C[C@@H]2O`, the T/C runs as follows: (dose: 5.0 mg/kg/injection, schedule: Q01DX010 (ip), vehicle: steriod suspending solution) 186 % of control; (dose: 10.0 mg/kg/injection, schedule: Q01DX010 (ip), vehicle: steriod suspending solution) 172 % of control; (dose: 12.5 mg/kg/injection, schedule: Q04DX003 (iv), vehicle: Klucel (hydroxypropylcellulose) (HPC)) 100 % of control; (dose: 20.0 mg/kg/injection, schedule: Q01DX010 (ip), vehicle: steriod suspending solution) 190 % of control; (dose: 21.6 mg/kg/injection, schedule: Q04DX003 (ip), vehicle: Klucel (hydroxypropylcellulose) (HPC)) 171 % of control; (dose: 25.0 mg/kg/injection, schedule: Q01DX010 (ip), vehicle: steriod suspending solution) 113 % of control. In addition, the T/C reads like this: (dose: 25.0 mg/kg/injection, schedule: Q04DX003 (ip), vehicle: Klucel (hydroxypropylcellulose) (HPC)) 162 % of control; (dose: 25.0 mg/kg/injection, schedule: Q04DX003 (iv), vehicle: Klucel (hydroxypropylcellulose) (HPC)) 98 % of control; (dose: 25.9 mg/kg/injection, schedule: Q04DX003 (ip), vehicle: Klucel (hydroxypropylcellulose) (HPC)) 179 % of control; (dose: 43.2 mg/kg/injection, schedule: Q04DX003 (ip), vehicle: Klucel (hydroxypropylcellulose) (HPC)) 170 % of control; (dose: 50.0 mg/kg/injection, schedule: Q04DX003 (ip), vehicle: Klucel (hydroxypropylcellulose) (HPC)) 165 % of control; (dose: 50.0 mg/kg/injection, schedule: Q04DX003 (iv), vehicle: Klucel (hydroxypropylcellulose) (HPC)) 103 % of control. For the same compound, the T/C runs as follows: (dose: 60.0 mg/kg/injection, schedule: Q04DX003 (ip), vehicle: Klucel (hydroxypropylcellulose) (HPC)) 102 % of control; (dose: 72.0 mg/kg/injection, schedule: Q04DX003 (ip), vehicle: Klucel (hydroxypropylcellulose) (HPC)) 166 % of control; under setting [1], 173 % of control; (dose: 120.0 mg/kg/injection, schedule: Q04DX003 (ip), vehicle: Klucel (hydroxypropylcellulose) (HPC)) 100 % of control.

Consider `CCCCCCCCCCCCCCCCOc1ccccc1CNc1cc(C(F)(F)F)ccc1Cl`, for which the T/C was 90 % of control (dose: 100.0 mg/kg/injection, schedule: Q01DX009 (ip), vehicle: other); 100 % of control (dose: 200.0 mg/kg/injection, schedule: Q01DX009 (ip), vehicle: other); 105 % of control (dose: 400.0 mg/kg/injection, schedule: Q01DX009 (ip), vehicle: other).

In the case of `CC(=O)Oc1c(C)c2c(O)c3c1C1=C(OCOC1=C(C)C3=O)C(C)=CC(C)(O)C(O)C(C)C(O)C1C(=O)OC(C(C)/C=C\C=C(C)C(=O)N2)C(C)C1O` (stereo not drawn), the T/C reads like this: under setting [2], 119 % of control; under setting [3], 123 % of control; under setting [4], 110 % of control.

Turning to `CC[C@@]1(O)C(=O)OCc2c1cc1n(c2=O)Cc2cc3ccccc3nc2-1`, the T/C (dose: 0.8 mg/kg/injection, schedule: Q01DX009 (ip), vehicle: saline with Tween-80) was 170 % of control; the T/C (dose: 1.5 mg/kg/injection, schedule: Q01DX009 (ip), vehicle: saline with Tween-80) was 195 % of control; the T/C (dose: 2.5 mg/kg/injection, schedule: Q04DX003 (ip), vehicle: saline with Tween-80) was 161 % of control; the T/C (dose: 3.0 mg/kg/injection, schedule: Q01DX009 (ip), vehicle: saline with Tween-80) was 183 % of control; the T/C (dose: 3.75 mg/kg/injection, schedule: Q04DX003 (ip), vehicle: saline with Tween-80) is 176 % of control; the T/C (dose: 4.0 mg/kg/injection, schedule: Q04DX003 (ip), vehicle: saline with Tween-80) was 200 % of control. Also, the T/C reads like this: (dose: 6.0 mg/kg/injection, schedule: Q04DX003 (ip), vehicle: saline with Tween-80) 233 % of control; (dose: 9.0 mg/kg/injection, schedule: Q04DX003 (ip), vehicle: saline with Tween-80) 250 % of control.

With `CCOC(CNC(=O)OCc1ccccc1)OCC`, the T/C runs as follows: under setting [2], 105 % of control; under setting [3], 100 % of control; under setting [4], 105 % of control.

Turning to `CC1CCC[N-]C1.CC1CCC[N-]C1.[Cl][Pt+2]([Cl])([Cl])[Cl]` (stereo not drawn), the T/C runs as follows: (dose: 3.12 mg/kg/injection, schedule: Q01DX009 (ip), vehicle: saline) 150 % of control and 154 % of control; (dose: 6.25 mg/kg/injection, schedule: Q01DX009 (ip), vehicle: saline) 172 % of control; (dose: 8.2 mg/kg/injection, schedule: Q01DX009 (ip), vehicle: saline) 161 % of control; (dose: 25.0 mg/kg/injection, schedule: Q01DX009 (ip), vehicle: saline) 154 % of control.

Regarding `CCN(CC)c1ccc(NC(=O)Nc2ccccc2C)cc1`, the T/C is 95 % of control under setting [5]; 95 % of control (dose: 200.0 mg/kg/injection, schedule: Q04DX003 (ip), vehicle: saline with Tween-80); 90 % of control (dose: 400.0 mg/kg/injection, schedule: Q04DX003 (ip), vehicle: saline with Tween-80).

Take `N#CC1CCCCC1C1(C#N)CCCCC1Cc1ccccn1` (stereo not drawn): the T/C is 98 % of control (dose: 100.0 mg/kg/injection, schedule: Q04DX002 (ip), vehicle: saline with Tween-80); 107 % of control (dose: 200.0 mg/kg/injection, schedule: Q04DX002 (ip), vehicle: saline with Tween-80); 92 % of control (dose: 400.0 mg/kg/injection, schedule: Q04DX002 (ip), vehicle: saline with Tween-80).

As to `CCO/C=C1\SC(=S)N(c2ccc(O)cc2)C1=O`, the T/C was 116 % of control (dose: 50.0 mg/kg/injection, schedule: Q01DX009 (ip), vehicle: saline with Tween-80); 116 % of control (dose: 100.0 mg/kg/injection, schedule: Q01DX009 (ip), vehicle: saline with Tween-80); 116 % of control (dose: 200.0 mg/kg/injection, schedule: Q01DX009 (ip), vehicle: saline with Tween-80).

Consider `COc1cc2c(c(OC)c1OC)-c1cc(I)c(O)cc1[C@@H](NC(C)=O)CC2`, for which the T/C by setting is: (dose: 2.75 mg/kg/injection, schedule: Q04DX003 (ip), vehicle: saline with Tween-80) 110 % of control; (dose: 5.5 mg/kg/injection, schedule: Q04DX003 (ip), vehicle: saline with Tween-80) 104 % of control; (dose: 11.0 mg/kg/injection, schedule: Q04DX003 (ip), vehicle: saline with Tween-80) 155 % of control; (dose: 22.0 mg/kg/injection, schedule: Q04DX003 (ip), vehicle: saline with Tween-80) 160 % of control; (dose: 66.0 mg/kg/injection, schedule: Q04DX003 (ip), vehicle: saline with Tween-80) 185 % of control and 222 % of control; under setting [5], 180 % of control and 194 % of control. Moreover, the T/C (dose: 150.0 mg/kg/injection, schedule: Q04DX003 (ip), vehicle: saline with Tween-80) is 205 % of control.

Consider `CN=C(N)Nc1ccc(C(=O)Oc2ccc([N+](=O)[O-])cc2)cc1`, for which the T/C is 89 % of control (dose: 12.5 mg/kg/injection, schedule: Q01DX009 (ip), vehicle: water); 95 % of control (dose: 25.0 mg/kg/injection, schedule: Q01DX009 (ip), vehicle: water); 87 % of control (dose: 50.0 mg/kg/injection, schedule: Q01DX009 (ip), vehicle: water); 122 % of control (dose: 50.0 mg/kg/injection, schedule: Q04DX003 (ip), vehicle: water); 110 % of control (dose: 100.0 mg/kg/injection, schedule: Q04DX003 (ip), vehicle: water); 105 % of control (dose: 200.0 mg/kg/injection, schedule: Q01DX009 (ip), vehicle: water). The T/C (dose: 200.0 mg/kg/injection, schedule: Q04DX003 (ip), vehicle: water) is 113 % of control.

For `CN(C)C(=S)Sc1ccc([N+](=O)[O-])cc1[N+](=O)[O-]`, the T/C by setting is: (dose: 100.0 mg/kg/injection, schedule: Q01DX001 (ip), vehicle: Klucel (hydroxypropylcellulose) (HPC)) 100 % of control; under setting [1], 100 % of control; (dose: 200.0 mg/kg/injection, schedule: Q01DX001 (ip), vehicle: Klucel (hydroxypropylcellulose) (HPC)) 100 % of control; (dose: 200.0 mg/kg/injection, schedule: Q04DX003 (ip), vehicle: Klucel (hydroxypropylcellulose) (HPC)) 104 % of control; (dose: 400.0 mg/kg/injection, schedule: Q01DX001 (ip), vehicle: Klucel (hydroxypropylcellulose) (HPC)) 100 % of control; (dose: 400.0 mg/kg/injection, schedule: Q04DX003 (ip), vehicle: Klucel (hydroxypropylcellulose) (HPC)) 108 % of control.

In the case of `COc1ccc(-c2cc(=O)c3cc(OC)c(OC)cc3o2)cc1OC`, the T/C runs as follows: (dose: 1.88 mg/kg/injection, schedule: Q01DX009 (ip), vehicle: saline) 94 % of control; (dose: 3.75 mg/kg/injection, schedule: Q01DX009 (ip), vehicle: saline) 91 % of control.

Source of the values: PubChem BioAssay AID328 (DTP/NCI, 2004).
